From publication PMC3417354 (Analytical biochemistry, 2012)

What was measured:
mammalian cells = conditions: overexpression in mammalian cells; ref [19]; [20]; cited from earlier work
PCNA trimer = assay: Gel filtration chromatography of PCNA/peptide complexes; assay type: binding, human; conditions: Superose 12, peptide : PCNA trimer 1:1; UV 280 nm
[1] = system: PCNA-dependent DNA synthesis; assay: Inhibition of PCNA-dependent DNA synthesis in HeLa cell extract; assay type: biochemical, human; conditions: PCNA titrated 0.05-2.5 μM (0.1-2.5 μM with 20 μM p21 peptide)
human PCNA = human PCNA (Homo sapiens, UniProt P12004); assay: Competition-based fluorescence polarization assay with BODIPY-p21 peptide; assay type: binding; conditions: competition FP, abstract statement
Chain of human PCNA (P12004 whole entry): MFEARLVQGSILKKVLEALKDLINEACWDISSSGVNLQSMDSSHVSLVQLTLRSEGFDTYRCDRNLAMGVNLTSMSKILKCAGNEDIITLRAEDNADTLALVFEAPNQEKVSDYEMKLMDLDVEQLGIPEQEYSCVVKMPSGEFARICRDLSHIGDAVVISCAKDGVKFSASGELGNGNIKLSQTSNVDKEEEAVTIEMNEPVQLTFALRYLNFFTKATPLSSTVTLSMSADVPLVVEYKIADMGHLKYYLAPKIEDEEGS

dissociation constant (in words) (human PCNA) | Substance | arrest of cell division (in words) (mammalian cells) | binding of single or multiple PCNA trimers (in words) (PCNA trimer) | rescue of DNA synthesis by added PCNA (in words) [1]
 | 20 amino-acid peptide spanning the C-terminus of p21: amino acids 141-160 of the native p21 | able to arrest cell division |  | 
low nanomolar dissociation constant | KRRQTSMTDFYHSKRRLIFSGGSGGSGGSGGSGGSGGSKRRQTSMTDFYHSKRRLIFS [divalent p21 peptide] |  | rules out the binding of multiple PCNA trimers | reversed the inhibition
low nanomolar dissociation constant | KRRQTSMTDFYHSKRRLIFSGGSGGSGGSGGSGGSGGSKRRQTSMTDFYHSKRRLIFSGGSGGSGGSGGSGGSGGSKRRQTSMTDFYHSKRRLIFS [trivalent p21 peptide] |  | rules out the binding of multiple PCNA trimers | reversed the inhibition
